Assay results published in patent publication US20130310379A1, “MODULATORS OF METHYL MODIFYING ENZYMES, COMPOSITIONS AND USES THEREOF” (CONSTELLATION PHARMACEUTICALS, priority 2010, published 2013).

molecular target: EZH2 (Homo sapiens, UniProt Q15910); test: EZH2 assay: rPRC2 with biotinylated oligonucleosome substrates and 3H SAM, FlashPlate scintillation counting, IC50; type: biochemical; conditions: rPRC2, biotinylated oligonucleosome substrates, 3H SAM; read-out: EZH2 IC50
Outline: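 rPRC2 (2 nM EZH2) pre-incubated 20 min with compound (80 to 0.16 uM, ten 2-fold steps), then 60 min reaction with 0.2 uM 3H SAM, 0.2 uM biotinylated oligonucleosomes, 3.6 uM H3K27me3 peptide in Tris pH 8.5. SAH/EDTA quench; 4-parameter IC50 fit.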

Sequence of EZH2 (Q15910 whole entry): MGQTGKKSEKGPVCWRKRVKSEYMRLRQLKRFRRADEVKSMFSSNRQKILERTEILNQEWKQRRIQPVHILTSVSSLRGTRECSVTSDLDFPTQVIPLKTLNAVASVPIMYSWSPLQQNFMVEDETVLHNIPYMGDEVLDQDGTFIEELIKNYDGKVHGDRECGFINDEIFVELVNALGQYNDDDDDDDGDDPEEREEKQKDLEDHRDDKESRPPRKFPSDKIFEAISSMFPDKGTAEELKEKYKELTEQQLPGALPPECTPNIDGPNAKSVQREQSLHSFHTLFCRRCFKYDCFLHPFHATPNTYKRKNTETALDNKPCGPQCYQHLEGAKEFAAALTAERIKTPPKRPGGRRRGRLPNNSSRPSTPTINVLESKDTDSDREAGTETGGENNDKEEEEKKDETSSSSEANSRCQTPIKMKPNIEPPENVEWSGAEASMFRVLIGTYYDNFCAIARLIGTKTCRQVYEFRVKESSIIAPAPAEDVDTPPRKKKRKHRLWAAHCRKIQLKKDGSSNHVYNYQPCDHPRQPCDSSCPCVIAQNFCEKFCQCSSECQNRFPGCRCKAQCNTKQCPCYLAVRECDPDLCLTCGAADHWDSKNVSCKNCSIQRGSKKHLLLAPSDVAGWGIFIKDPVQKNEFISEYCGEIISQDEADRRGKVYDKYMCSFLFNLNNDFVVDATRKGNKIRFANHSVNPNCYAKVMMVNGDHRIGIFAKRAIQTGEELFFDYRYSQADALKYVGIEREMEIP
Sequence of EZH2 (O75530 whole entry partner): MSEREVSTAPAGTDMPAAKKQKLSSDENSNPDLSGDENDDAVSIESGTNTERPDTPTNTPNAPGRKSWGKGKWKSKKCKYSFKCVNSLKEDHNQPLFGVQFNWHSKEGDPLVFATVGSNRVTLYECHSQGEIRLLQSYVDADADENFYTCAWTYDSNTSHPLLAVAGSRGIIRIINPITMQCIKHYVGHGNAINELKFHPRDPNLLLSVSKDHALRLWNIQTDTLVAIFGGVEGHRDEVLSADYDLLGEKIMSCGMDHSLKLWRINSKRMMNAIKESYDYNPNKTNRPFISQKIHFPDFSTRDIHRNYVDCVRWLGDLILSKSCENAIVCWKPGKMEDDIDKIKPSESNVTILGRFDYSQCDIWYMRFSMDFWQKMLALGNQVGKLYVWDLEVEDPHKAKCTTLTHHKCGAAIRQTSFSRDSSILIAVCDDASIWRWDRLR
Sequence of EZH2 (Q15022 whole entry partner): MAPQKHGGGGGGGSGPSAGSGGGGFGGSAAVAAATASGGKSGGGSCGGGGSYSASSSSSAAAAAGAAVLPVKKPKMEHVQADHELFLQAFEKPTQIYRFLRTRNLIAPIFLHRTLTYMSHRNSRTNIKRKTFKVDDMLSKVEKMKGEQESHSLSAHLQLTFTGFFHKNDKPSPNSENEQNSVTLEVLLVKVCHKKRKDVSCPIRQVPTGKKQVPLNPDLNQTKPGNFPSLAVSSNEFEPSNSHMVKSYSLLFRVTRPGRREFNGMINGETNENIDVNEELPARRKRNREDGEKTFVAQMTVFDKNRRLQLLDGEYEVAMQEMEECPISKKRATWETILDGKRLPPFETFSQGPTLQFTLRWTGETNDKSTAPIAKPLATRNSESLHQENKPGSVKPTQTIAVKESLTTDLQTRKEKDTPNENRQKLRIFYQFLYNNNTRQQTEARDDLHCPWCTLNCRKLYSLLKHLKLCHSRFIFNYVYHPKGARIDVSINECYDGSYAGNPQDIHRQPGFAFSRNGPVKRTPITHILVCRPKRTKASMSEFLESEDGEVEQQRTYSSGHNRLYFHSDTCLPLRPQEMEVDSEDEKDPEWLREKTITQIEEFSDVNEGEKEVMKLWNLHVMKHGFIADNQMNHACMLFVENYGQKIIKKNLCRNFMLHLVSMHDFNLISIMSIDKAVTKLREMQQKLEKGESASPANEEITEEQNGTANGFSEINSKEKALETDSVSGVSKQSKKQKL

**Q.** How did the IC50 turn out when CC1(C)CC(NC(=O)c2ccc(Oc3cccc(C(F)(F)F)c3C#N)c(Cl)c2)CC(C)(C)N1 [Compound I-311] was run?
**A.** < 5 µM

**Q.** For CN1CCC(NC(=O)c2ccc(Oc3ccccc3C#N)c(Cl)c2)CC1 [Compound I-193], which IC50 is on record?
**A.** > 80 µM

**Q.** How did the IC50 turn out when Cc1ccccc1Oc1ccc(C(=O)NC2CC(C)(C)NC(C)(C)C2)cc1 [Compound I-48] was run?
**A.** 20 to 80 µM

**Q.** For CC1(C)CC(NC(=O)c2ccc(-n3ccc4ccccc43)c(Cl)c2)CC(C)(C)N1 [Compound I-328], which IC50 is on record?
**A.** 20 to 80 µM

**Q.** Which IC50 does the source give for Cc1ccc(OCc2ccc(C(=O)NC3CC(C)(C)NC(C)(C)C3)cc2)cc1 [Compound I-22] here?
**A.** 20 to 80 µM

**Q.** CC1(C)CC(NC(=O)c2ccc(SC3CCCCC3)cc2)CC(C)(C)N1 [Compound I-145] was tested. Which IC50 did it give?
**A.** 20 to 80 µM

**Q.** CNCc1cccc(Oc2ccc(C(=O)NC3CC(C)(C)NC(C)(C)C3)cc2Cl)c1 [Compound I-425] was tested. Which IC50 did it give?
**A.** > 80 µM

**Q.** Which IC50 does the source give for CC1(C)CC(NC(=O)c2ccc(Oc3ccccc3-c3cncnc3)c(Cl)c2)CC(C)(C)N1 [Compound I-279] here?
**A.** < 5 µM

**Q.** Which IC50 does the source give for CC1(C)CC(NC(=O)c2ccc(Oc3cccc(O)c3)cc2)CC(C)(C)N1 [Compound I-29] here?
**A.** 20 to 80 µM

**Q.** How did the IC50 turn out when Cc1cccc(OCc2ccc(C(=O)NC3CC(C)(C)NC(C)(C)C3)cc2)c1C [Compound I-54] was run?
**A.** 20 to 80 µM

**Q.** How did the IC50 turn out when Cc1cncc(-c2cccc(Oc3ccc(C(=O)NC4CC(C)(C)NC(C)(C)C4)cc3Cl)c2C#N)c1 [Compound I-360] was run?
**A.** < 5 µM

**Q.** CC1(C)CC(NC(=O)c2ccc(CSc3ccccc3)cc2)CC(C)(C)N1 [Compound I-83] was tested. Which IC50 did it give?
**A.** > 80 µM

**Q.** With CC1(C)CNCCC1NC(=O)c1ccc(Oc2ccccc2C#N)c(Cl)c1 (stereo not shown) [Compound I-406] as the compound, how does the IC50 read?
**A.** > 80 µM

**Q.** For CC1(C)CC(NC(=O)c2ccc(Oc3cccc4cnc(Cl)cc34)cc2)CC(C)(C)N1 [Compound I-315], which IC50 is on record?
**A.** < 5 µM

**Q.** COCc1cccc(Oc2ccc(C(=O)NC3CC(C)(C)NC(C)(C)C3)cc2Cl)c1C#N [Compound I-453] was tested. Which IC50 did it give?
**A.** < 5 µM

**Q.** With CC1(C)CC(NC(=O)c2ccc(-n3cccn3)c(Cl)c2)CC(C)(C)N1 [Compound I-496] as the compound, how does the IC50 read?
**A.** > 80 µM

**Q.** For CC1(C)CC(NC(=O)c2ccc(Oc3cccc(-c4ccnnc4)c3C#N)c(Cl)c2)CC(=O)N1 (stereo not shown) [Compound I-519], which IC50 is on record?
**A.** 20 to 80 µM

**Q.** Which IC50 does the source give for CC1(C)CC(NC(=O)c2ccc(Oc3ccccc3-c3ccc(N)nc3)c(Cl)c2)CC(C)(C)N1 [Compound I-227] here?
**A.** < 5 µM

**Q.** Which IC50 does the source give for CC1(C)CC(NC(=O)c2ccc(Oc3cccc(-c4cncc(F)c4)c3C#N)c(Cl)c2)CC(C)(C)N1 [Compound I-528] here?
**A.** < 5 µM

**Q.** With CC1(C)CC(NC(=O)c2ccc(Oc3ccccc3F)cc2)CC(C)(C)N1 [Compound I-40] as the compound, how does the IC50 read?
**A.** 20 to 80 µM

**Q.** How did the IC50 turn out when CC1(C)CC(NC(=O)c2ccc(Oc3ccccc3C(C)(C)C)cc2)CC(C)(C)N1 [Compound I-151] was run?
**A.** 5 to 20 µM

**Q.** How did the IC50 turn out when CC1(C)CC(NC(=O)c2ccc(Oc3cccc(C4CCNCC4)c3C#N)cc2)CC(C)(C)N1 [Compound I-534] was run?
**A.** < 5 µM

**Q.** For CC1(C)CC(NC(=O)c2ccc(Oc3ccc(I)cn3)cc2)CC(C)(C)N1 [Compound I-68, 4-(5-Iodopyridin-2-yloxy)-N-(2,2,6,6-tetramethylpiperidin-4-yl)benzamide], which IC50 is on record?
**A.** > 80 µM

**Q.** N#Cc1c(Oc2ccc(C(=O)NC3CCNCC3)cc2Cl)cccc1-c1cn[nH]c1 [Compound I-373] was tested. Which IC50 did it give?
**A.** > 80 µM

**Q.** How did the IC50 turn out when CC1(C)CC(NC(=O)c2ccc(OCCc3ccccc3)cc2)CC(C)(C)N1 [Compound I-84] was run?
**A.** > 80 µM

**Q.** CC1(C)CC(NC(=O)c2ccc(N3CC(c4ccccc4)CC3=O)c(Cl)c2)CC(C)(C)N1 (stereo not shown) [Compound I-396] was tested. Which IC50 did it give?
**A.** > 80 µM

**Q.** Which IC50 does the source give for CC1(C)CC(NC(=O)c2ccc(Oc3ccccc3C3CCCCC3)cc2)CC(C)(C)N1 [Compound I-150] here?
**A.** 5 to 20 µM

**Q.** For CC1(C)CC(NC(=O)c2ccc(Oc3ccccc3OCc3cccnc3)cc2)CC(C)(C)N1 [Compound I-232], which IC50 is on record?
**A.** 20 to 80 µM

**Q.** Which IC50 does the source give for CN(C)CCNC(=O)c1ccc(Oc2ccccc2)cc1 [Compound I-132] here?
**A.** > 80 µM

**Q.** For CC1(C)CC(NC(=O)c2ccc(Oc3cccc(-c4cnn(CC(N)=O)c4)c3C#N)c(Cl)c2)CC(C)(C)N1 [Compound I-386], which IC50 is on record?
**A.** < 5 µM

**Q.** How did the IC50 turn out when CC1(C)CC(NC(=O)c2ccc(Oc3ncccc3C(N)=O)cc2)CC(C)(C)N1 [Compound I-103, 2-(4-(2,2,6,6-Tetramethylpiperidin-4-ylcarbamoyl)phenoxy)nicotinamide] was run?
**A.** > 80 µM

**Q.** For CC1(C)CC(NC(=O)c2ccc(Oc3cccc(-c4ccnnc4)c3C#N)c(Cl)c2)CC(C)(C)[S+]1[O-] (stereo not shown) [Compound I-518], which IC50 is on record?
**A.** 20 to 80 µM

**Q.** Which IC50 does the source give for CC1(C)CC(NC(=O)c2ccc(Oc3cccc(CN4CCCCC4)c3)cc2)CC(C)(C)N1 [Compound I-169] here?
**A.** 5 to 20 µM

**Q.** Which IC50 does the source give for COc1ccc(OCc2ccc(C(=O)NC3CC(C)(C)NC(C)(C)C3)cc2)cc1 [Compound I-63] here?
**A.** 20 to 80 µM

**Q.** Which IC50 does the source give for CC1(C)CC(NC(=O)c2ccc(COc3cccc4cnccc34)cc2)CC(C)(C)N1 [Compound I-182] here?
**A.** 5 to 20 µM

**Q.** CC1(C)CC(NC(=O)c2ccc(COc3cccc(N4CCCNCC4)c3)cc2)CC(C)(C)N1 [Compound I-166] was tested. Which IC50 did it give?
**A.** > 80 µM

**Q.** For Cc1ncccc1-c1cccc(OCc2ccc(C(=O)NC3CC(C)(C)NC(C)(C)C3)cc2)c1 [Compound I-58], which IC50 is on record?
**A.** 20 to 80 µM

**Q.** With COc1ncccc1-c1cccc(OCc2ccc(C(=O)NC3CC(C)(C)NC(C)(C)C3)cc2)c1 [Compound I-55] as the compound, how does the IC50 read?
**A.** 20 to 80 µM

**Q.** How did the IC50 turn out when CC1(C)CC(NC(=O)c2cc(F)c(Oc3ccccc3C#N)c(Br)c2)CC(C)(C)N1 [Compound I-351] was run?
**A.** < 5 µM

**Q.** With CC1(C)CC(NC(=O)c2ccc(-n3ccc4cc(O)ccc43)c(Cl)c2)CC(C)(C)N1 [Compound I-494] as the compound, how does the IC50 read?
**A.** 20 to 80 µM

**Q.** How did the IC50 turn out when CC1(C)CC(NC(=O)c2ccc(COc3cccc(-c4ccc(=O)[nH]c4)c3)cc2)CC(C)(C)N1 [Compound I-65] was run?
**A.** 20 to 80 µM

**Q.** CC1(C)CC(NC(=O)c2ccc(C(=O)Nc3cccc(Br)c3)cc2)CC(C)(C)N1 [Compound I-161] was tested. Which IC50 did it give?
**A.** > 80 µM

**Q.** Which IC50 does the source give for CC(C)c1cc(C(=O)NC2CC(C)(C)NC(C)(C)C2)ccc1Oc1ccccc1C#N [Compound I-237] here?
**A.** < 5 µM

**Q.** Which IC50 does the source give for COC(=O)c1ccc(-c2ccccc2Oc2ccc(C(=O)NC3CC(C)(C)NC(C)(C)C3)cc2Cl)cn1 [Compound I-294] here?
**A.** < 5 µM

**Q.** Which IC50 does the source give for CC1(C)CC(NC(=O)c2ccc(COc3cccc(-c4ccc(N)nc4)c3)cc2)CC(C)(C)N1 [Compound I-1] here?
**A.** < 5 µM

**Q.** N#Cc1ccccc1Oc1ccc(C(=O)NC2CCNCC2)cc1Cl [Compound I-178] was tested. Which IC50 did it give?
**A.** > 80 µM

**Q.** How did the IC50 turn out when CC1(C)CC(NC(=O)c2ccc(Oc3ccccc3C#N)cc2Cl)CC(C)(C)N1 [Compound I-174] was run?
**A.** 20 to 80 µM

**Q.** For N#CCCN1CCC(NC(=O)c2ccc(Oc3cccc(-c4ccnnc4)c3C#N)c(Cl)c2)CC1 [Compound I-485], which IC50 is on record?
**A.** 20 to 80 µM

**Q.** How did the IC50 turn out when CC(O)c1cccc(Oc2ccc(C(=O)NC3CC(C)(C)NC(C)(C)C3)cc2Cl)c1Br (stereo not shown) [Compound I-399] was run?
**A.** < 5 µM

**Q.** With CC1(C)CC(NC(=O)c2ccc(-c3ccccc3)cc2)CC(C)(C)N1 [Compound I-61] as the compound, how does the IC50 read?
**A.** 20 to 80 µM

**Q.** CC1(C)CC(NC(=O)c2ccc(COc3ccccn3)cc2)CC(C)(C)N1 [Compound I-80] was tested. Which IC50 did it give?
**A.** > 80 µM

**Q.** Which IC50 does the source give for CC1(C)CC(NC(=O)c2ccc(COc3cccc(-c4cc[nH]c(=O)c4)c3)cc2)CC(C)(C)N1 [Compound I-11] here?
**A.** 5 to 20 µM

**Q.** For COc1cc(C(=O)NC2CC(C)(C)NC(C)(C)C2)cc2c1OCCO2 [Compound I-471], which IC50 is on record?
**A.** > 80 µM

**Q.** With CC1(C)CC(NC(=O)c2ccc(C(O)c3ccccc3)cc2)CC(C)(C)N1 (stereo not shown) [Compound I-432] as the compound, how does the IC50 read?
**A.** > 80 µM

**Q.** CC1(C)CC(NC(=O)c2ccc(Oc3ccccc3N3CCOCC3)cc2)CC(C)(C)N1 [Compound I-44] was tested. Which IC50 did it give?
**A.** 20 to 80 µM
